These are literature values, as cited in patent publication US8383579B2, “Method for customized dispensing of variable dose drug combination products for individualizing of therapies” (Glaxosmithkline, LLC, priority 2004, dated 2013).

The conditions of data set [1]: Coreg + cimetidine.
For data set [2] the following is noted: Lanoxin + coreg UID.

Structures are written as SMILES.

Take `COc1ccccc1OCCNCC(O)COc1cccc2[nH]c3ccccc3c12` (stereo not drawn) [Coreg]: in data set [1], the AUC steady state is recorded as 30% and the Cmax entry is given as “no change”.
For `C[C@H]1O[C@@H](O[C@H]2[C@@H](O)C[C@H](O[C@H]3[C@@H](O)C[C@H](O[C@H]4CC[C@@]5(C)[C@H](CC[C@@H]6[C@@H]5C[C@@H](O)[C@]5(C)[C@@H](C7=CC(=O)OC7)CC[C@]65O)C4)O[C@@H]3C)O[C@@H]2C)C[C@H](O)[C@@H]1O` [Lanoxin, digoxin], the peak/trough conc in data set [2] was 14-16%.
